This test has as its target T1, human ROR1 (Homo sapiens, UniProt Q01973).
T1 construct: host or cells: HEK 293T cells, Tet-on system induced with doxycycline
The test can be described thus: ROR1 high content cell-based binding assay. The settings on record: read-out: ROR1 Binding 293T Human HC Cell Based Assay IC50. A digest of the protocol: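 Doxycycline-induced 293T cells expressing human ROR1, seeded overnight, were treated with compound plus 5-FAM-labeled ROR1-binding probe peptide (30 nM final) for 1 h at 37 °C. After washing and formaldehyde/Hoechst fixation, cell-bound probe fluorescence was read by high-content imaging.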

The structures appear in SMILES notation. Positions of bridges follow the written chain, without caps; N, C: chain ends. Non-standard residues stand in square brackets, D forms with d. Residues, ends and D or L forms follow the SMILES beside them. Sar = CNCC(=O)O

This passage reports IC50 results from patent publication US20240116988A1, “ANTI-ROR1 MACROCYCLIC PEPTIDES AND COMPOSITIONS” (BRISTOL-MYERS SQUIBB COMPANY, priority 2022, published 2024).

T1 sequence (Q01973 30-937): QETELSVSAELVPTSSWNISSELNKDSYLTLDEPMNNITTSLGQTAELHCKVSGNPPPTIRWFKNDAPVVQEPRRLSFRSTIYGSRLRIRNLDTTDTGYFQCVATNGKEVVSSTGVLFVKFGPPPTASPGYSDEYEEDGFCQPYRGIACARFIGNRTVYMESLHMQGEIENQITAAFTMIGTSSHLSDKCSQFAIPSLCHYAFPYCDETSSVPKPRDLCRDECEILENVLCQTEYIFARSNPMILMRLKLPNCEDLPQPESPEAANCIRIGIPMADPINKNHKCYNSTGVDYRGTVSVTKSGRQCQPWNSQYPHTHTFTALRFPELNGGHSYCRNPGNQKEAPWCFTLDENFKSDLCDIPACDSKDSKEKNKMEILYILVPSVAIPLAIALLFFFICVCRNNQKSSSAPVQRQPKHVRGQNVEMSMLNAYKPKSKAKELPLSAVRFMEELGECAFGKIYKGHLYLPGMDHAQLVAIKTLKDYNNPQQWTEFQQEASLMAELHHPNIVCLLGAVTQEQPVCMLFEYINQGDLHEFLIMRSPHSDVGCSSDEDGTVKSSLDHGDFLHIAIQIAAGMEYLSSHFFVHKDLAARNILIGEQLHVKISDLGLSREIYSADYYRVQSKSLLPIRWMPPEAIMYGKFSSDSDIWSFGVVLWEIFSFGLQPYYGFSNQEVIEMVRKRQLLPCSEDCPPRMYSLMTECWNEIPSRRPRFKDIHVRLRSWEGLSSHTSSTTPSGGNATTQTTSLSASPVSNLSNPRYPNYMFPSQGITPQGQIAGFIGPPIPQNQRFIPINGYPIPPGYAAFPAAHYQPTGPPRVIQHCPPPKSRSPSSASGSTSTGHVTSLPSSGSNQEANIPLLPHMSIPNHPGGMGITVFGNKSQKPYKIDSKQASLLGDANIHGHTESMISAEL

As to `CC(C)C[C@@H]1NC(=O)[C@H](Cc2ccccc2)NC(=O)CSC[C@@H](C(=O)NCC(N)=O)NC(=O)[C@H](C(C)C)NC(=O)[C@H](Cc2c[nH]c3ccccc23)NC(=O)[C@H](CC(C)C)NC(=O)[C@H](Cc2c[nH]c3ccccc23)NC(=O)CN(C)C(=O)CNC(=O)[C@H](C(C)C)NC(=O)[C@H](Cc2c[nH]c3ccccc23)NC1=O` [Example 1205] ({CH2CO}-FLWVG[Sar]WLWVCG-NH2; thioether N-11), the IC50 – broadly, the midpoint of a concentration-inhibition curve – came to 0.346 µM.
